This is an account of results in PMC2215728 (The Journal of General Physiology, 1978).

Read-outs that look alike come from different tables or passages of the source.

In data set [1] the test system is everted segments of rat jejunum. The data set can be described thus: Influx of weak electrolytes into everted segments of rat jejunum in vitro. To be noted: for Influx Jejunum: Table III; for Resistance Jejunum Unstirred layer: Table V, calculated as d/DSc; for Ratio of influx and nonionized concentration: J(1 + 10a)/C.
The test system of data set [2] is everted segments of rat ileum. Put plainly: Influx of weak electrolytes into everted segments of rat ileum in vitro. The conditions noted are these: for Influx Ileum: Table III; for Resistance Ileum Unstirred layer: Table V, calculated as d/DSc.
Data set [3] in a line: Partition in two-phase aqueous/organic solvent. In kind it is physicochemical. To be noted: heptane:aqueous partition of nonionized form.
For data set [4] the following is noted: Table III, cited from earlier work.
Data set [5] deals with everted segments of rat ileum.
In data set [6] the test system is everted segments of rat jejunum.
The mark [7] stands for this setting: 1 mM, pH 7.40, 1 min, 37C, mean SE (n).
[8] abbreviates: Table I, everted rat jejunum, 1 mM solution, second weak electrolyte (10 mM): Benzylamine.
The mark [9] stands for this setting: Table I, everted rat jejunum, 1 mM solution, second weak electrolyte (10 mM): Pentanoic acid.
Setting [10] is: Table I, everted rat jejunum, 1 mM solution, second weak electrolyte (10 mM): c-Hexylamine.
Where [11] appears, read: 0.1 mM solution, observed influx increased by a factor of 10.
Setting [12] is: Table II, everted segments (region not stated), pH 7.4.
[13] abbreviates: Table I, everted rat jejunum, 1 mM solution, second weak electrolyte (10 mM): Benzoic acid.

In the case of `CC(C)N` [2-Amino propane], the “Influx Jejunum” value in data set [1] (setting [7]) is given as 6 nmol.100mg dry wt-1.min-1. Further, the “Resistance Jejunum Unstirred layer” value in data set [1] was 1.47 cm-3.min.100 mg dry wt. Moreover, in data set [2] (setting [7]), the “Influx Ileum” value worked out at 4 nmol.100mg dry wt-1.min-1. The “Resistance Ileum Unstirred layer” value in data set [2] is 1.54 cm-3.min.100 mg dry wt. In data set [3], the “ratio of kni Hept values for 2-amino-propane and propionic acid” value is given as “greater than 20”. For the same compound, in data set [4] (ref Ref. 6), the pKa (in general, the negative logarithm of the acid dissociation constant) is given as 10.63.

In the case of `O=C(O)c1ccccc1` [Benzoic, Benzoic acid], the figures for the Influx in data set [1] (setting [8]), in data set [1] (setting [9]) and in data set [1] (setting [10]) were 19 nmol.100mg dry wt-1.min-1, 21 nmol.100mg dry wt-1.min-1 and 17 nmol.100mg dry wt-1.min-1, respectively. For the same compound, the “Influx Jejunum” value in data set [1] (setting [7]) was found to be 17 nmol.100mg dry wt-1.min-1. Moreover, the “Influx Ileum” value in data set [2] (setting [7]) is 15 nmol.100mg dry wt-1.min-1.

Take `CCCCCC(=O)O` [Hexanoic, HEXANOIC ACID]: the “Influx Jejunum” value in data set [1] (setting [7]) worked out at 73 nmol.100mg dry wt-1.min-1. Moreover, in data set [1], the “Resistance Jejunum Unstirred layer” value is 2.13 cm-3.min.100 mg dry wt. In data set [2] (setting [7]), the “Influx Ileum” value is recorded as 29 nmol.100mg dry wt-1.min-1. Further, the “Resistance Ileum Unstirred layer” value in data set [2] is 2.24 cm-3.min.100 mg dry wt.

With `CCCCCCC(=O)O` [Heptanoic], the “Influx Jejunum” value in data set [1] (setting [7]) is reported as 81 nmol.100mg dry wt-1.min-1. Besides, the “Resistance Jejunum Unstirred layer” value in data set [1] is reported as 2.31 cm-3.min.100 mg dry wt. In addition, the “Influx Ileum” value in data set [2] (setting [7]) stood at 50 nmol.100mg dry wt-1.min-1. Moreover, the “Resistance Ileum Unstirred layer” value in data set [2] is 2.43 cm-3.min.100 mg dry wt. The pKa in data set [4] (ref Ref. 6) is 4.89.

With `O=C(O)C(c1ccccc1)c1ccccc1` [Diphenylacetic], the “Influx Jejunum” value in data set [1] (setting [7]) was 14 nmol.100mg dry wt-1.min-1. Besides, in data set [1], the “Resistance Jejunum Unstirred layer” value was 2.81 cm-3.min.100 mg dry wt. Further, in data set [2] (setting [7]), the “Influx Ileum” value stood at 7 nmol.100mg dry wt-1.min-1. Further, in data set [2], the “Resistance Ileum Unstirred layer” value is reported as 2.95 cm-3.min.100 mg dry wt. The pKa in data set [4] (ref Ref. 6) was 3.94.

For the compound `CCC1(c2ccccc2)C(=O)NC(=O)NC1=O` [Phenobarbital], the “Influx Jejunum” value in data set [1] (setting [7]) came to 321 nmol.100mg dry wt-1.min-1. For the same compound, the “Resistance Jejunum Unstirred layer” value in data set [1] was 2.81 cm-3.min.100 mg dry wt. In addition, the “Resistance Ileum Unstirred layer” value in data set [2] is 2.95 cm-3.min.100 mg dry wt.

On to `CCCCCCCCCC(=O)O` [Decanoic, decanoic acid], for which, in data set [1] (setting [11]), the “Influx Jejunum” value is 361 nmol.100mg dry wt-1.min-1. In data set [1], the “Resistance Jejunum Unstirred layer” value was 2.79 cm-3.min.100 mg dry wt. Moreover, the “Influx Ileum” value in data set [2] (setting [11]) amounted to 158 nmol.100mg dry wt-1.min-1. In data set [2], the “Resistance Ileum Unstirred layer” value is listed as 2.93 cm-3.min.100 mg dry wt.

For the compound `CC(C)CC(=O)O` [iso-Pentanoic], the “Influx Jejunum” value in data set [1] (setting [7]) came out at 21 nmol.100mg dry wt-1.min-1. In data set [5], the “Resistance Ileum Empirical” value is given as 5.00x 101 and the “Resistance Ileum Unstirred layer” value stood at 2.05. Also, in data set [6], the “Resistance Jejunum Empirical” value is 4.76x 101 and the “Resistance Jejunum Unstirred layer” value came to 1.95. For the same compound, the “Influx Ileum” value in data set [2] (setting [7]) is listed as 20 nmol.100mg dry wt-1.min-1.

For `CCCCCCCC(=O)O` [Octanoic, Octanoic acid], the Influx worked out at 145 in data set [1] (setting [12]); 60 in data set [1] (Table II, everted segments (region not stated), pH 7.9); 15 in data set [1] (Table II, everted segments (region not stated), pH 8.4). The “Influx Jejunum” value in data set [1] (setting [7]) was 147 nmol.100mg dry wt-1.min-1. Further, in data set [1], the “Resistance Jejunum Unstirred layer” value is given as 2.47 cm-3.min.100 mg dry wt. Besides, the “Influx Ileum” value in data set [2] (setting [7]) is on record as 56 nmol.100mg dry wt-1.min-1. In data set [2], the “Resistance Ileum Unstirred layer” value is on record as 2.60 cm-3.min.100 mg dry wt.

`CCCCCCCO` [heptanol]: in data set [1] (preliminary experiments, range of pH values 7.5-8.5), the “influx of heptanol with pH of incubation saline” value was “constant”.

With `CC(C)C(=O)O` [iso-Butyric], the “Influx Jejunum” value in data set [1] (setting [7]) came out at 10 nmol.100mg dry wt-1.min-1. In addition, the “Resistance Jejunum Unstirred layer” value in data set [1] is given as 1.75 cm-3.min.100 mg dry wt. In addition, the “Influx Ileum” value in data set [2] (setting [7]) was determined as 13 nmol.100mg dry wt-1.min-1. In addition, the “Resistance Ileum Unstirred layer” value in data set [2] is given as 1.84 cm-3.min.100 mg dry wt.

For the compound `O=C(O)Cc1ccccc1` [Phenylacetic, PHENYLACETIC ACID], the “Influx Jejunum” value in data set [1] (setting [7]) worked out at 24 nmol.100mg dry wt-1.min-1. Besides, the “Resistance Jejunum Unstirred layer” value in data set [1] was 2.16 cm-3.min.100 mg dry wt. The “Influx Ileum” value in data set [2] (setting [7]) is given as 15 nmol.100mg dry wt-1.min-1. Further, the “Resistance Ileum Unstirred layer” value in data set [2] was 2.27 cm-3.min.100 mg dry wt.

For the compound `C=CCN1CC[C@]23c4c5ccc(O)c4O[C@H]2C(=O)CC[C@@]3(O)[C@H]1C5` [Naloxone], in data set [1] (setting [7]), the “Influx Jejunum” value is recorded as 286 nmol.100mg dry wt-1.min-1. Also, the “Resistance Jejunum Unstirred layer” value in data set [1] is 3.38 cm-3.min.100 mg dry wt. Also, the “Influx Ileum” value in data set [2] (setting [7]) worked out at 263 nmol.100mg dry wt-1.min-1. In addition, the pKa in data set [4] (ref Taylor (11)) was 6.93.

For the compound `NC1CCCCC1` [c-Hexylamine], the Influx stood at 9 nmol.100mg dry wt-1.min-1 in data set [1] (setting [13]), 12 nmol.100mg dry wt-1.min-1 in data set [1] (setting [8]), 9 nmol.100mg dry wt-1.min-1 in data set [1] (setting [9]) and 12 in data set [1] (setting [12]). For the same compound, the “Ratio of influx and nonionized concentration” value turned out to be 22 in data set [1] (Table II, pH 7.4) and 24 in data set [1] (Table II, pH 7.9). For the same compound, the “Influx Jejunum” value in data set [1] (setting [7]) is 12 nmol.100mg dry wt-1.min-1. In addition, the “Resistance Jejunum Unstirred layer” value in data set [1] is 1.95 cm-3.min.100 mg dry wt. For the same compound, the “Influx Ileum” value in data set [2] (setting [7]) is given as 6 nmol.100mg dry wt-1.min-1. The “Resistance Ileum Unstirred layer” value in data set [2] was 2.05 cm-3.min.100 mg dry wt. For the same compound, in data set [4] (ref Ref. 6), the pKa is on record as 10.66.

For the compound `CCCC(=O)O` [Butyric], in data set [1] (setting [7]), the “Influx Jejunum” value came to 12 nmol.100mg dry wt-1.min-1. Besides, the “Influx Ileum” value in data set [2] (setting [7]) is reported as 11 nmol.100mg dry wt-1.min-1.

For the compound `CN1C(=O)NC(=O)C(C)(C2=CCCCC2)C1=O` (centres unmarked) [Hexobarbital], in data set [1] (setting [7]), the “Influx Jejunum” value was 348 nmol.100mg dry wt-1.min-1. Besides, the “Resistance Jejunum Unstirred layer” value in data set [1] is reported as 2.86 cm-3.min.100 mg dry wt. In addition, in data set [2] (setting [7]), the “Influx Ileum” value was found to be 327 nmol.100mg dry wt-1.min-1. Also, the “Resistance Ileum Unstirred layer” value in data set [2] was 3.00 cm-3.min.100 mg dry wt. In addition, the pKa in data set [4] (ref Bush (1)) is 8.20.

For `CCCCC(=O)O` [Pentanoic, Pentanoic acid], the Influx in data set [1] (setting [13]) was 22 nmol.100mg dry wt-1.min-1; in data set [1] (setting [8]) it was 18 nmol.100mg dry wt-1.min-1; in data set [1] (setting [10]), 20 nmol.100mg dry wt-1.min-1. Moreover, the “Influx Jejunum” value in data set [1] (setting [7]) is reported as 22 nmol.100mg dry wt-1.min-1. In data set [1], the “Resistance Jejunum Unstirred layer” value is on record as 1.95 cm-3.min.100 mg dry wt. The “Influx Ileum” value in data set [2] (setting [7]) is given as 18 nmol.100mg dry wt-1.min-1. Further, in data set [2], the “Resistance Ileum Unstirred layer” value is 2.05 cm-3.min.100 mg dry wt.

For the compound `CCC(=O)C(CC(C)N(C)C)(c1ccccc1)c1ccccc1` (centres unmarked) [Methadone], the “Influx Jejunum” value in data set [1] (setting [7]) is 272 nmol.100mg dry wt-1.min-1. For the same compound, the “Resistance Jejunum Unstirred layer” value in data set [1] is reported as 3.74 cm-3.min.100 mg dry wt. The “Influx Ileum” value in data set [2] (setting [7]) is recorded as 259 nmol.100mg dry wt-1.min-1. The “Resistance Ileum Unstirred layer” value in data set [2] was 3.93 cm-3.min.100 mg dry wt.

Turning to `CCCCCCCCCCN` [Decylamine], the “Influx Jejunum” value in data set [1] (setting [11]) is listed as 264 nmol.100mg dry wt-1.min-1. Also, the “Resistance Jejunum Unstirred layer” value in data set [1] is on record as 2.78 cm-3.min.100 mg dry wt.

For `CCC(=O)O` [Propionic, propionic acid], the “Influx Jejunum” value in data set [1] (setting [7]) is on record as 6 nmol.100mg dry wt-1.min-1. Further, in data set [1], the “Resistance Jejunum Unstirred layer” value is reported as 1.53 cm-3.min.100 mg dry wt. Further, the “Influx Ileum” value in data set [2] (setting [7]) is reported as 9 nmol.100mg dry wt-1.min-1. In data set [2], the “Resistance Ileum Unstirred layer” value is recorded as 1.61 cm-3.min.100 mg dry wt.

Take `NCc1ccccc1` [Benzylamine]: the Influx in data set [1] (setting [13]) came to 221 nmol.100mg dry wt-1.min-1; in data set [1] (setting [10]) it was 211 nmol.100mg dry wt-1.min-1. Besides, the “Influx Jejunum” value in data set [1] (setting [7]) was found to be 220 nmol.100mg dry wt-1.min-1. For the same compound, the “Resistance Jejunum Unstirred layer” value in data set [1] is given as 1.92 cm-3.min.100 mg dry wt. Also, in data set [2] (setting [7]), the “Influx Ileum” value came out at 155 nmol.100mg dry wt-1.min-1. For the same compound, the “Resistance Ileum Unstirred layer” value in data set [2] is listed as 2,02 cm-3.min.100 mg dry wt.

`CC(=O)O` [Acetic, acetic acid]: the “Influx Jejunum” value in data set [1] (setting [7]) came to 0 nmol.100mg dry wt-1.min-1. Besides, the “Influx Ileum” value in data set [2] (setting [7]) was 3 nmol.100mg dry wt-1.min-1.
